In patent US9493468B2, “Antifungal 5,6-dihydro-4H-pyrrolo[1,2-a][1,4]benzo-diazepines and 6H-pyrrolo[1,2-a][1,4]benzodiazepines substituted with heterocyclic derivatives” (Janssen Pharmaceutica NV, priority 2011, dated 2016):

Assays:
Format in all cases: cell-based
Trichophyton rubrum = test: Antifungal activity in vitro, resazurin growth inhibition: Trichophyton rubrum (B68183)
Procedure: (§1) The standard susceptibility screen is performed in 96-well plates (U-bottom, Greiner Bio-One). Serial dilutions (2-fold or 4-fold) of 20 mM compound stock solutions are made in 100% DMSO, followed by an intermediate dilution step in water. These serial dilutions (10 μl) are then spotted onto test-plates that can be stored in the dark at 4° C. for a maximum period of 2 weeks. An adequate broad dose-range is included with 64 μM as the highest in-test concentration. The culture medium RPMI-1640 is supplemented with L-glutamine, 2% glucose and buffered with 3-(N-morpholino)-propanesulfonic acid (MOPS) at pH 7.0±0.1.
(§2) The different fungal species/isolates (Table 3a) are cryopreserved and 1/1000 diluted in medium just prior to use. A standard inoculum of 200 μl containing 10^3 colony-forming unit (cfu) is then added to each well. A positive control (100% growth=fungal culture without antifungal) and a negative control (0% growth ═RPMI-MOPS medium) are included on each plate. Optimal incubation time and temperature are dependent on the fungal species and vary from 24 h for yeasts (37° C.) to one week or more for dermatophytes (27° C.). Inhibition of fungal growth is measured after adding 10 μl of 0.005% (w/v) resazurin (Sigma Aldrich) to each well, based on the principle that living cells convert the non-fluorescent blue resazurin into the pink and fluorescent resorufin, allowing fluorimetric reading (λex 550 nm and λem 590 nm) after an additional incubation period (‘resa’ time mentioned in Table 3a).

[1] = test system: Trichophyton mentagrophytes; test: Antifungal activity in vitro, resazurin growth inhibition: Trichophyton mentagrophytes (B70554)
Procedure: as §1, §2

Sporothrix schenkii = test: Antifungal activity in vitro, resazurin growth inhibition: Sporothrix schenkii (B62482)
Procedure: as §1, §2

Aspergillus fumigatus = test: Antifungal activity in vitro, resazurin growth inhibition: Aspergillus fumigatus (B42928)
Procedure: as §1, §2

Cryptococcus neoformans = test: Antifungal activity in vitro, resazurin growth inhibition: Cryptococcus neoformans (B66663)
Procedure: as §1, §2

Candida parapsilosis = test: Antifungal activity in vitro, resazurin growth inhibition: Candida parapsilosis (B66126)
Procedure: as §1, §2

Microsporum canis = test: Antifungal activity in vitro, resazurin growth inhibition: Microsporum canis (B68128)
Procedure: as §1, §2

| Compound | Inf. C: Trichophyton rubrum B68183, pIC50 (Trichophyton rubrum) | Inf. G: Trichophyton mentagrophytes B70554, pIC50 [1] | Inf. A: Sporothrix schenkii B62482, pIC50 (Sporothrix schenkii) | Inf. E: Aspergillus fumigatus B42928, pIC50 (Aspergillus fumigatus) | Inf. F: Cryptococcus neoformans B66663, pIC50 (Cryptococcus neoformans) | Inf. D: Candida parapsilosis B66126, pIC50 (Candida parapsilosis) | Inf. B: Microsporum canis B68128, pIC50 (Microsporum canis) |
| --- | --- | --- | --- | --- | --- | --- | --- |
| Cl.Fc1ccc2oc(C3NCc4ccc(Cl)cc4-n4cccc43)cc2c1 (racemic) [Compound 48] | 5.39 | <4.19 | <4.19 | <4.19 | 4.84 | <4.19 | 4.30 |
| Cl.Fc1ccc2oc(C3NCc4c(Cl)cc(Cl)cc4-n4cccc43)cc2c1 (racemic) [Compound 49] | 5.28 | <4.19 | <4.80 | <4.19 | <4.19 | <4.19 | 4.82 |
| Cc1nc2ccc(C3NCc4c(Cl)cccc4-n4cccc43)cc2o1.Cl (racemic) [Compound 50] | 4.49 | <4.19 | <4.19 | <4.19 | <4.19 | <4.19 | 4.56 |
| Cl.Clc1cc2oc(C3NCc4c(Cl)cccc4-n4cccc43)cc2cn1 (racemic) [Compound 51] | 5.63 | 4.94 | <4.19 | <4.19 | 4.45 | <4.19 | 5.40 |
| Cl.c1ccc2c(c1)CNC(c1cc3ccccc3s1)c1cccn1-2 (racemic) [Compound 52] | 6.13 | 5.70 | 5.40 | 5.30 | 6.00 | <4.19 | 5.70 |
| Cl.Clc1cccc2c1CNC(c1cc3ccccc3s1)c1cccn1-2 (racemic) [Compound 53] | 6.10 | 5.70 | 4.92 | 5.40 | 5.70 | <4.19 | 5.70 |
| Cl.Clc1cc(Cl)c2c(c1)-n1cccc1C(c1cc3ccccc3s1)NC2 (racemic) [Compound 56] | 5.71 | 4.48 | <4.19 | <4.19 | <4.19 | <4.19 | <4.19 |
| Cc1ccc(Cl)c2c1-n1cccc1C(c1cc3ccccc3s1)NC2.Cl (racemic) [Compound 57] | 5.10 | <4.19 | <4.19 | <4.19 | <4.19 | <4.19 | 5.24 |
| Cl.Clc1cccc2c1CNC(c1ccc3scc(Cl)c3c1)c1cccn1-2 (racemic) [Compound 58] | 6.29 | 5.09 | <4.19 | 4.48 | 4.58 | <4.19 | 5.08 |
| Cl.Clc1cccc2c1CNC(c1nc3ccccc3s1)c1cccn1-2 (racemic) [Compound 59] | 6.47 | 6.00 | 4.85 | <4.19 | <4.19 | <4.19 | 6.22 |
| CCn1cc(C2=NCc3c(Cl)cccc3-n3cccc32)cn1 [Compound 60] | 5.70 | 4.47 | <4.19 | 4.30 | <4.19 | <4.19 | 5.18 |
| CCn1cc(C2=NCc3c(Cl)ccc(Cl)c3-n3cccc32)cn1 [Compound 61] | 4.52 | 4.39 | <4.19 | <4.19 | 4.44 | <4.19 | 4.66 |
| CCn1cc(C2=NCc3cc(Cl)cc(Cl)c3-n3cccc32)cn1 [Compound 62] | 5.22 | 4.86 | 4.51 | 4.70 | 5.15 | 4.23 | 4.59 |
| CCc1cc(C2=NCc3c(Cl)cccc3-n3cccc32)on1 [Compound 63] | 5.72 | 5.58 | <4.19 | <4.19 | <4.19 | <4.19 | <4.19 |
| CCc1nc(C2=NCc3c(Cl)cccc3-n3cccc32)cs1 [Compound 64] | 5.46 | 5.94 | <4.19 | <4.19 | 4.70 | <4.19 | 5.42 |
| CCc1nc(C2=NCc3c(Cl)cc(Cl)cc3-n3cccc32)cs1 [Compound 65] | 5.19 | 5.48 | 4.56 | <4.19 | 5.06 | <4.19 | 4.72 |
| CCc1cnc(C2=NCc3c(Cl)cccc3-n3cccc32)s1 [Compound 66] | 6.18 | 4.19 | <4.19 | <4.19 | <4.19 | <4.19 | 4.98 |
| CCc1cnc(C2=NCc3c(Cl)cc(Cl)cc3-n3cccc32)s1 [Compound 67] | 4.71 | <4.19 | <4.19 | <4.19 | <4.19 | <4.19 | 4.50 |
